US7511123B2, “Immuno-interactive fragments of the alpha-C subunit of inhibin” (Prince Henry's Institute of Medical Research, priority 1999, dated 2009)

Legend:
PO-12 [1] = assay: Solid phase binding of Set 2 peptides to PO-12; set-up: species or system mouse; key: +++; ΦΦΦ strong effect; +, Φ weak effect; settings: Set 2 biotinylated peptides 24 micromoles/L
Procedure: (§1) The binding of the 41 biotinylated peptides as set forth in Table 7 (peptide set 2) to the mouse monoclonal antibodies (PO# series) was assessed as follows:
(§2) a) Assay 1 (solid phase assay). The assay was undertaken as outlined in assay 1 of Example 2. Biotinylated peptides (24 micromoles/L) were initially bound to streptavidin-coated plates. Mab (at an appropriate dilution to give a detectable response, 1:1000, 1:10000 dilution of the culture medium) was then added and incubated for 1.5 hr. The amount of bound Mab was determined using horseradish peroxidase-bound anti-mouse IgG serum and enzyme activity detected at 450-630 nm using an ELISA plate reader.

As #1989 = assay: RIA (Assay 2): competition with iodinated inhibin for As #1989; format: binding, rabbit; settings: biotinylated peptides; 50% fall in binding of iodinated inhibin
From the text: (§3) This assay was used to determine which peptides compete with iodinated 30 kDa inhibin for As #41, #128 and #1989 (used in the original inhibin RIA, Lapphorn et al., 1989, supra) in a RIA format. This assay identifies those peptides that bind to inhibin-binding antibodies in the antiserum and provides a stricter affinity and specificity assessment in identifying the appropriate epitopes than that found with Assay 1. The competition between peptide and hr-inhibin (used as the standard) was assessed from their ED50 values. The RIA consisted of the competition of iodinated inhibin and either hr-inhibin reference preparation, individual peptides or pools from the 4 peptide regions, with As #41, #128 and in some instances, As #1989. The peptides/inhibin/iodinated inhibin and antisera (at a prescribed dilution) were incubated overnight at 4° C. using standard methodologies. The antibody-bound iodinated inhibin was immunoprecipitated with the addition of an anti-sheep IgG serum raised in goats and the radioactivity was measured in a gamma counter. The concentration of peptide that gives a 50% fall in binding of iodinated inhibin (ED50) was determined and this value was used to give a measure of the affinity of the peptide for the antiserum. This methodology consisted of determining the ED50 of the peptide in the RIA using iodinated human recombinant inhibin as tracer with either As #41, As #128 or As #1989 and graded doses of either hr-inhibin or peptide as described in Example 2.

As #128 [2] = assay: RIA (Assay 2): competition with iodinated inhibin for As #128; format: binding, sheep; settings: biotinylated peptides; 50% fall in binding of iodinated inhibin
From the text: as §3

PO-14 [3] = assay: RIA of Set 2 peptides with PO-14; format: binding, mouse; set-up: key: ΦΦΦ strong effect; +, Φ weak effect; a) limited binding; settings: Set 2 biotinylated peptides 0.8 and 0.08 micromoles/L
Procedure: (§4) The binding of the 41 biotinylated peptides as set forth in Table 7 (peptide set 2) to the mouse monoclonal antibodies (PO# series) was assessed as follows: b) Assay 2 (radioimrnunoassay, RIA) using iodinated human inhibin A as tracer. Mabs (at an appropriate dilution, see above) were incubated with iodinated human recombinant inhibin in the presence of biotinylated peptides (0.8 and 0.08 micromoles/L final concentration) overnight at room temperature.

As #41 [4] = assay: RIA (Assay 2): competition with iodinated inhibin for As #41; format: binding, sheep; settings: biotinylated peptides; 50% fall in binding of iodinated inhibin
From the text: as §3

PO-14 [5] = assay: Solid phase binding of Set 2 peptides to PO-14; set-up: species or system mouse; key: +++; ΦΦΦ strong effect; +, Φ weak effect; settings: Set 2 biotinylated peptides 24 micromoles/L
Procedure: as §1, §2

PO-12 [6] = assay: RIA of Set 2 peptides with PO-12; format: binding, mouse; set-up: key: ΦΦΦ strong effect; +, Φ weak effect; a) limited binding; settings: Set 2 biotinylated peptides 0.8 and 0.08 micromoles/L
Procedure: as §4

As #41 [7] = assay: Solid phase assay (Assay 1): biotinylated peptides binding to As #41; set-up: species or system sheep; key: +++++ major contribution; + minor contribution; settings: relative contribution
Procedure: (§5) This assay is a broad screen of the binding of the 31 biotinylated peptides to As #41 and #128 as recommended by Chiron Mimotopes.
(§6) The biotinylated peptides were initially bound to streptavidin-coated 96-well plates (2 hours at room temperature), antiserum #41 or #128 was then added (2 hours room temperature) to bind to the peptides. Detection of antiserum binding was assessed by a further incubation with an anti-ovine IgG serum labeled with the enzyme, horseradish peroxidase. The enzyme activity was assessed by conversion of a colorless substrate to a colored product that is detected in a spectrophotometer. The enzyme activity measured was proportional to the extent of the binding of the peptides.

PO-14 [8] = assay: RIA of Set 2 peptides with PO-14; format: binding, mouse; settings: Set 2 biotinylated peptides 0.8 and 0.08 micromoles/L
Procedure: as §4

As #128 [9] = assay: Competitive 2-site assay (Assay 3), approach (a); format: binding, sheep; set-up: key: +++++ major contribution; + minor contribution; settings: relative contribution
From the text: This assay was developed to establish the relative importance of the individual peptides and peptide pools (identified as epitopes in Assays 1 and 2) in the sandwich antibody format used in the IFMA with As #128 as capture antibody and As #41 as detection antibody. Two approaches (a and b) were considered, Approach (a) explores the cross-reaction of peptides with inhibin for the immobilized As #128 while Approach (b) assesses their cross-reaction with inhibin for As #41.
Approach (a). The biotinylated peptide pools and/or individual peptides at various concentrations, in combination with a fixed concentration of hr-inhibin, were incubated for 2 hours with As #128-coated plates. The plates were then washed to remove any unbound material. Iodinated As #41 was then added to bind to the bound hr-inhibin, the plates washed and the bound radioactivity was measured in a gamma counter. The counts measured were proportional to the amount of hr-inhibin bound to both antisera. The possibility that a peptide contained two epitopes capable of linking As #128 and #41 was assessed in the absence of added hr-inhibin.

R1 [10] = assay: RIA of Set 2 peptides with R1; format: binding, mouse; set-up: key: +++; ΦΦΦ strong effect; +, Φ weak effect; settings: Set 2 biotinylated peptides 0.8 and 0.08 micromoles/L
Procedure: as §4

As #128 [11] = assay: Solid phase assay (Assay 1): biotinylated peptides binding to As #128; set-up: species or system sheep; key: +++++ major contribution; + minor contribution; settings: relative contribution
Procedure: as §5, §6

R1 [12] = assay: Solid phase binding of Set 2 peptides to R1; set-up: species or system mouse; key: +++; ΦΦΦ strong effect; +, Φ weak effect; settings: Set 2 biotinylated peptides 24 micromoles/L
Procedure: as §1, §2

PO-22 [13] = assay: RIA of Set 2 peptides with PO-22; format: binding, mouse; set-up: key: ΦΦΦ strong effect; +, Φ weak effect; a) limited binding; settings: Set 2 biotinylated peptides 0.8 and 0.08 micromoles/L
Procedure: as §4

PO-22 [14] = assay: Solid phase binding of Set 2 peptides to PO-22; set-up: species or system mouse; key: +++; ΦΦΦ strong effect; +, Φ weak effect; settings: Set 2 biotinylated peptides 24 micromoles/L
Procedure: as §1, §2

PO-6 = assay: Solid phase binding of Set 2 peptides to PO-6; set-up: species or system mouse; key: +++; ΦΦΦ strong effect; +, Φ weak effect; settings: Set 2 biotinylated peptides 24 micromoles/L
Procedure: as §1, §2

R1 [15] = assay: RIA of Set 2 peptides with R1; format: binding, mouse; set-up: key: ΦΦΦ strong effect; +, Φ weak effect; a) limited binding; settings: Set 2 biotinylated peptides 0.8 and 0.08 micromoles/L
Procedure: as §4

PO-12 [16] = assay: RIA of Set 2 peptides with PO-12; format: binding, mouse; set-up: key: +++; ΦΦΦ strong effect; +, Φ weak effect; settings: Set 2 biotinylated peptides 0.8 and 0.08 micromoles/L
Procedure: as §4

PO-14 [17] = assay: RIA of Set 2 peptides with PO-14; format: binding, mouse; set-up: key: +++; ΦΦΦ strong effect; +, Φ weak effect; settings: Set 2 biotinylated peptides 0.8 and 0.08 micromoles/L
Procedure: as §4

Row | Substance | PO-12 SPB (PO-12 [1]) | As#1989 ED50 (As #1989) | As#128 ED50 (As #128 [2]) | As#41 ED50 (As #41 [4]) | PO-14 SPB (PO-14 [5]) | PO-12 RIA (PO-12 [6]) | also measured
1 | SGSG PYSLLPGAQPCCAA [Peptide 24] | +++ | >2500 nM | 900 nM | 6200 nM | +++ | ΦΦΦ | PO-14 RIA (PO-14 [3]): ΦΦΦ
2 | SGSG QPCCAALPGTMRPL [Peptide 26] | +++ | >2500 nM | 625 nM | 1000 nM | +++ | ΦΦΦ | PO-14 RIA (PO-14 [3]): ΦΦΦ
3 | SGSG GTMRPLHVRTTSDG [Peptide 28] |  | >2500 nM | 625 nM | 4000 nM |  |  | #41 Antibody screen Assay 1 (As #41 [7]): +
4 | SGSG DGGYSFKYETVPNL [Peptide 31] |  | >2500 nM | 1400 nM | 2400 nM |  |  | #41 Antibody screen Assay 1 (As #41 [7]): +
5 | SGSG TPAQPYSLLPGAQP [Peptide 23] | +++ | >2500 nM | 500 nM | 6200 nM | +++ | ΦΦΦ | PO-14 RIA (PO-14 [8]): ΦΦ
6 | SGSG ALRLLQRPPEEPAA [Peptide 6] |  | >2500 nM | 1800 nM | 26 nM |  |  | #128 2-site competitive assay Assay 3 (As #128 [9]): +; R1 RIA (R1 [10]): Φ; #128 Antibody screen Assay 1 (As #128 [11]): +
7 | SGSG MSWPWSPSALRLLQ [Peptide 4] |  | >2500 nM | 3800 nM | 1300 nM |  |  | #128 2-site competitive assay Assay 3 (As #128 [9]): +; #128 Antibody screen Assay 1 (As #128 [11]): +; R1 SPB (R1 [12]): +; PO-22 RIA (PO-22 [13]): ΦΦΦ; PO-22 SPB (PO-22 [14]): +++; PO-6 SPB (PO-6): +++
8 | SGSG LPGAQPCCAALPGT [Peptide 25] | +++ | >2500 nM | 2000 nM | 5000 nM | +++ | ΦΦΦ | PO-14 RIA (PO-14 [3]): ΦΦΦ
9 | SGSG STPLMSWPWSPSAL [Peptide 3] |  | >2500 nM | 38000 nM |  |  |  | R1 RIA (R1 [15]): ΦΦΦ; R1 SPB (R1 [12]): +++; PO-22 RIA (PO-22 [13]): ΦΦΦ; PO-22 SPB (PO-22 [14]): +++; PO-6 SPB (PO-6): +++
10 | SGSG AALPGTMRPLHVRT [Peptide 27] |  | >2500 nM | 2000 nM | 5000 nM | +++ |  | PO-14 RIA (PO-14 [8]): ΦΦ; PO-12 RIA (PO-12 [16]): Φ
11 | SGSG GAPPTPAQPYSLLP [Peptide 22] | +++ | >2500 nM | 156 nM | 5000 nM | +++ |  | PO-14 RIA (PO-14 [17]): Φ; PO-12 RIA (PO-12 [16]): Φ
